Test results reported in ChEMBL document CHEMBL4680157, “Design, synthesis and biological evaluation of novel TRβ selective agonists sustained by ADME-toxicity analysis” (Eur J Med Chem, 2020).
Activity calls are given as the source filed them. The calls are words filed in the database; no cut-off is given here.

Tests used:
HDAC4 = HDAC4 (Homo sapiens, UniProt P56524); assay: Inhibition of HDAC4 (unknown origin) at 10 uM relative to control
HDAC6 = biological target: T1, HDAC6 (Homo sapiens, UniProt Q9UBN7); assay: Inhibition of HDAC6 (unknown origin) at 10 uM relative to control
T1 sequence (Q9UBN7 whole entry): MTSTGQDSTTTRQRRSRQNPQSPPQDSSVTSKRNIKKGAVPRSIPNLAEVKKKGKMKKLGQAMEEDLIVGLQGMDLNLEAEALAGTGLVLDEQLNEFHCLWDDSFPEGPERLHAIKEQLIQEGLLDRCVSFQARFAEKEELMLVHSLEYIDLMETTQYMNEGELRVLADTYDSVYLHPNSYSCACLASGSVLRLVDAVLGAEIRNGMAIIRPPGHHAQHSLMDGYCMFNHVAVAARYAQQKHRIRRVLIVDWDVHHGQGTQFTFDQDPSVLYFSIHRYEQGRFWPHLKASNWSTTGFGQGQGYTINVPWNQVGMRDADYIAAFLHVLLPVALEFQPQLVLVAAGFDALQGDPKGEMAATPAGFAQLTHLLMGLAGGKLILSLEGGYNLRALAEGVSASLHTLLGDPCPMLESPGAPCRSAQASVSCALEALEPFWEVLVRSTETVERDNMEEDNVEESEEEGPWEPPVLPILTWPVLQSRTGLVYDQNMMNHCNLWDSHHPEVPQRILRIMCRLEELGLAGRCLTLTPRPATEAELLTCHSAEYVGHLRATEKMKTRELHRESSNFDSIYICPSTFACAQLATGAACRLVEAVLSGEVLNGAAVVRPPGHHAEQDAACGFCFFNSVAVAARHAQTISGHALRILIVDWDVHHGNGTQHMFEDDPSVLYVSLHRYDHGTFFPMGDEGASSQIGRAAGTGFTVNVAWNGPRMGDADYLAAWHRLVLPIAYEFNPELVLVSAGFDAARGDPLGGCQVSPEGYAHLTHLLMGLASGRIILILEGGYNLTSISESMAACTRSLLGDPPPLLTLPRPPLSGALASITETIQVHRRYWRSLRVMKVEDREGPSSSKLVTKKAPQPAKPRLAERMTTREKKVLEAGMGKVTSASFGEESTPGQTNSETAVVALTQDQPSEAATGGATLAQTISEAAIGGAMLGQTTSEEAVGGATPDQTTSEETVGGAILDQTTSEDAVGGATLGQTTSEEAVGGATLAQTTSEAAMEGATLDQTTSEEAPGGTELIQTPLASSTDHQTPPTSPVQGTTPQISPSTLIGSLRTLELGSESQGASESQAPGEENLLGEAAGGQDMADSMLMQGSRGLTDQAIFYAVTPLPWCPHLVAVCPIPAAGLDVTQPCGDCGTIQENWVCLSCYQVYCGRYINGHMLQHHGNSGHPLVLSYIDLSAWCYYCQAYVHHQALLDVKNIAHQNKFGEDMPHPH

Aurora B = Aurora B (Homo sapiens, UniProt Q96GD4); assay: Inhibition of Aurora B (unknown origin) at 10 uM relative to control
HepG2 = assay: Induction of lipolysis in human HepG2 cells assessed as reduction in intracellular lipid accumulation at 1 to 10 uM incubated for 24 hrs by Oil Red O staining based spectrophotometric analysis; assay type: functional, cell-based; conditions: dose 1-10 µM
[1] = biological target: AMP-activated protein kinase, AMPK (Homo sapiens) (UniProt P54646+O43741+P54619+Q9UGJ0+Q9Y478+Q13131+Q9UGI9); assay: Activation of AMPK in human HepG2 cells assessed as ratio of phosphorylated AMPK at 10 uM measured after 24 hrs by Western blot analysis; assay type: cell-based; conditions: filed as activator
[2] = Toxicity in F344 rat assessed as increase in heart weight at 50 to 100 ug per 100 g body weight, ig administered daily for 3 days; conditions: in vivo, po, 72 h, dose 50-100 µg, time 3 day
[3] = Toxicity in F344 rat assessed as increase in heart and body weight ratio at 50 to 100 ug per 100 g body weight, ig administered daily for 3 days; conditions: in vivo, po, 72 h, dose 50-100 µg, time 3 day
[4] = Toxicity in F344 rat assessed as reduction in liver and body weight ratio at 50 to 100 ug per 100 g body weight, ig administered daily for 3 days; assay type: tissue-based; conditions: in vivo, po, 72 h, dose 50-100 µg, time 3 day
[5] = Toxicity in F344 rat assessed as effect on serum AST/GOT level at 50 ug per 100 g of body weight, ig administered daily for 3 days (reference value: 153 +/- 11 U/L); conditions: in vivo, po, 72 h, dose 50 µg, time 3 day
[6] = Toxicity in F344 rat assessed as effect on serum AST/GOT level at 100 ug per 100 g body weight, ig administered daily for 3 days (reference value: 153 +/- 11 U/L); conditions: in vivo, po, 72 h, dose 100 µg, time 3 day
[7] = Toxicity in F344 rat assessed as effect on serum AST/GOT level at 75 ug per 100 g body weight, ip administered daily for 3 days (reference value: 153 +/- 11 U/L); assay type: organism-based; conditions: in vivo, 72 h, dose 75 µg, time 3 day
[8] = Toxicity in F344 rat assessed as effect on serum ALT/GPT level at 75 ug per 100 g body weight, ig administered daily for 3 days (reference value: 46 +/- 4 U/L); conditions: in vivo, po, 72 h, dose 75 µg, time 3 day
[9] = Toxicity in F344 rat assessed as effect on serum bilirubin level at 75 ug per 100 g body weight, ig administered daily for 3 days (reference value: 1.4 +/- 0.2 mg/dl); conditions: in vivo, po, 72 h, dose 75 µg, time 3 day
[10] = Toxicity in F344 rat assessed as effect on serum bilirubin level at 75 ug per 100 g body weight, ip administered daily for 3 days (reference value: 1.4 +/- 0.2 mg/dl); assay type: organism-based; conditions: in vivo, 72 h, dose 75 µg, time 3 day
[11] = Toxicity in F344 rat assessed as effect on serum glucose level at 50 ug per 100 g body weight, ig administered daily for 3 days (reference value: 151 +/- 13.5 mg/dl); conditions: in vivo, po, 72 h, dose 50 µg, time 3 day
[12] = Toxicity in F344 rat assessed as effect on serum glucose level at 100 ug per 100 g body weight, ig administered daily for 3 days (reference value: 151 +/- 13.5 mg/dl); conditions: in vivo, po, 72 h, dose 100 µg, time 3 day
[13] = Toxicity in F344 rat assessed as effect on serum cholesterol level at 50 ug per 100 g body weight, ig administered daily for 3 days (reference value: 67.2 +/- 2.5 mg/dl); conditions: in vivo, po, 72 h, dose 50 µg, time 3 day
[14] = Toxicity in F344 rat assessed as effect on serum cholesterol level at 100 ug per 100 g body weight, ig administered daily for 3 days (reference value: 67.2 +/- 2.5 mg/dl); conditions: in vivo, po, 72 h, dose 100 µg, time 3 day
[15] = Toxicity in F344 rat assessed as effect on serum cholesterol level at 75 ug per 100 g body weight, ip administered daily for 3 days (reference value: 67.2 +/- 2.5 mg/dl); assay type: organism-based; conditions: in vivo, 72 h, dose 75 µg, time 3 day
[16] = Toxicity in F344 rat assessed as effect on serum triglycerides level at 50 ug per 100 g body weight, ig administered daily for 3 days (reference value: 86.8 +/- 10.4 mg/dl); conditions: in vivo, po, 72 h, dose 50 µg, time 3 day

HDAC4, sequence (P56524 whole entry): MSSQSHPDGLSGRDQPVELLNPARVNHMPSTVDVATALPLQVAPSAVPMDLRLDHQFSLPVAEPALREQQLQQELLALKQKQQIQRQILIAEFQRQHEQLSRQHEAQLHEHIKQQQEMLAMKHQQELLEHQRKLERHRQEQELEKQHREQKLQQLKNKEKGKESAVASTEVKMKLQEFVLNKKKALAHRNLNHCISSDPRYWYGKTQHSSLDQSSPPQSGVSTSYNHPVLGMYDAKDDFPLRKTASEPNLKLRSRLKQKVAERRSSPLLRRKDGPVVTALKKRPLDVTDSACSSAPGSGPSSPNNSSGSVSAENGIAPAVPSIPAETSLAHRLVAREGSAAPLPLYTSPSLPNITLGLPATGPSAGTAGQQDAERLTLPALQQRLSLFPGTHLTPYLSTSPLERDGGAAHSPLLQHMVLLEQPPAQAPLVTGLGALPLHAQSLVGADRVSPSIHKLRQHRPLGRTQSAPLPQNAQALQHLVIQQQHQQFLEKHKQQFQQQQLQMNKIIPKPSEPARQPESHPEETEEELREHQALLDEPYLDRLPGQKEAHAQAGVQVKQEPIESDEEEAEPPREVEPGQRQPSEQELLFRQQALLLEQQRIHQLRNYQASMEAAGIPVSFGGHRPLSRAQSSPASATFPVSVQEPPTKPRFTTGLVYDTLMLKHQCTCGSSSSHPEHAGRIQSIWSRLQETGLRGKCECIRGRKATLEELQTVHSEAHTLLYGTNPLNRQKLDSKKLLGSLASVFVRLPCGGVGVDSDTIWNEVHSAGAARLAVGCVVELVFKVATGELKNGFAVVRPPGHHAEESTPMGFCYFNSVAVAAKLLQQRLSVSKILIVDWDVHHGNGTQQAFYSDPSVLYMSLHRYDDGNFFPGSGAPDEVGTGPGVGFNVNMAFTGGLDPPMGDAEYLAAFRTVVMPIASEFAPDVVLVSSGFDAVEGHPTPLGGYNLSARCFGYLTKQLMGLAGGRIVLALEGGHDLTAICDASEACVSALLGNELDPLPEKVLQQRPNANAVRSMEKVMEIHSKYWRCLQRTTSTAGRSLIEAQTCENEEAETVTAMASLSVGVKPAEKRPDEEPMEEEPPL
Aurora B, sequence (Q96GD4 whole entry): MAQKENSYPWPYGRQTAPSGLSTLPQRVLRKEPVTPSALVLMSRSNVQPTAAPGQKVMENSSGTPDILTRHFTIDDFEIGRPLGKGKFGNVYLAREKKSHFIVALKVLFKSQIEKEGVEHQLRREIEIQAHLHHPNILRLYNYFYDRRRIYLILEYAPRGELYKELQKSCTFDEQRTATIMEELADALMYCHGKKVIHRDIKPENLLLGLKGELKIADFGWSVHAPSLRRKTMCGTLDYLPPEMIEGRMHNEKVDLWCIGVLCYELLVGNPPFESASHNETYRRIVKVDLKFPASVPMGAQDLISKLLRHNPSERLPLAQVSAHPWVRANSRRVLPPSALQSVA

Row | inhibition at 10 µM (HDAC4) | inhibition at 10 µM (HDAC6) | inhibition at 10 µM (Aurora B) | Activity [1] | Compound | Activity (HepG2) | Activity [2] | Activity [3] | Activity [4] | Activity [5] | Activity [6] | Activity [7] | Activity [8] | Activity [9] | Activity [10] | Activity [11] | Activity [12] | Activity [13] | Activity [14] | Activity [15] | Activity [16]
1 | < 50% | < 50% | < 50% | Active | CC(=O)Nc1ccc(Cc2c(C)cc(OCC(=O)O)cc2C)cc1C(C)C | Active | Non-Toxic | Non-Toxic | Non-Toxic | 141 U/L | 108 U/L | 134 U/L | 46 U/L | 0.9 mg/dL | 1.5 mg/dL | 129 mg/dL | 164 mg/dL | 68 mg/dL | 67.6 mg/dL | 71.4 mg/dL | 70.4 mg/dL
2 | < 50% | < 50% | < 50% | Active | Cc1cc(OCC(=O)O)cc(C)c1Cc1ccc(N)c(C(C)C)c1 | Active | Non-Toxic | Non-Toxic | Non-Toxic | 134 U/L | 102 U/L | 123 U/L | 43 U/L | 1.6 mg/dL | 1.1 mg/dL | 136 mg/dL | 166 mg/dL | 69.5 mg/dL | 70.1 mg/dL | 69.6 mg/dL | 68.3 mg/dL
3 | < 50% | < 50% | < 50% | – | Cc1cc(OCC(=O)O)cc(C)c1Cc1ccc(O)cc1 | – | – | – | – | – | – | – | – | – | – | – | – | – | – | – | –
